Laboratory results from patent US20240200074A1, “METHOD AND COMPOSITIONS FOR PREVENTING TUMOR DEVELOPMENT AND METASTASIS” (The Administrators of the Tulane Educational Fund, priority 2021, published 2024).
“Also recorded” adds a separate entry of the source.

What was measured:
U87 = assay: MTT assay with IGU, adult GBM cell line; assay type: cell-based, human
Method: (§1) In vitro investigations were carried out using transduced TNBC cell line (MDAMB-231) and patient derived TNBC cells (4IC), pediatric GBM cell line (KNS), and adult GBM cell line (U87) by targeting and suppressing/silencing TRAF3IP2 expression using shRNA Lentiviral vector (TRAF3IP2KD) versus shRNA control (SCR). Using MTT assay, we treated malignant cells with low and high concentrations of IGU to test cell proliferation, viability, and apoptosis compared to vehicle (DMSO) treated cells. It is shown in FIG. 16 that the silencing of TRAF3IP2 enhances the effect of IGU on adult glioblastoma cells (U87), pediatric glioblastoma cells (KNS) and on triple negative cancer cell growth (data not shown).

KNS = assay: MTT assay with IGU, pediatric GBM cell line; assay type: cell-based, human
Method: as §1

4IC = assay: Cell cycle profile of 4IC cells in vitro, Paclitaxel and TRAF3IP2 knockdown; assay type: cell-based, human
Excerpt: One chemotherapy agent being tested is Paclitaxel. […] Paclitaxel has been previously shown to arrest cell cycle progression at the G2/M phase, resulting in apoptosis.

wild type 4IC cells = assay: 4IC tumors in vivo, combination therapy with Paclitaxel and TRAF3IP2-AO; settings: vs SCR-AO group
Method: At first, tumors were induced using wild type 4IC cells using a similar set up described in FIG. 5. After tumor induction, each group was treated with one of the following: SCR-AO (4IC SCR-AO Treated), SCR-AO and Paclitaxel (SCR-AO+Paclitaxel Treated), TRAF3IP2-AO Treated, or TRAF3IP2-AO and Paclitaxel (TRAF3IP2-AO+Paclitaxel Treated).

TNBC cells = assay: Membrane potential assay (mitochondrial) in TNBC cells; assay type: cell-based, human; settings: in TRAF3IP2 knockdown cells
TNBC [1] = assay: Detection of micrometastasis using PCR in TNBC metastatic niches of AO treated animals; assay type: in vivo, mice; settings: α-satellite DNA of chromosome 17
Method: FIG. 4E. Detection of micrometastasis using PCR. Key TNBC metastatic niches were analyzed for micrometastasis using primers directed towards a human-specific alpha-satellite DNA sequence of the centromere region of human chromosome 17.
Moreover, PCR using primers that specifically detect human-specific a-satellite DNA sequence of the centromere region of human chromosome 17 indicated no micrometastasis in the treated group.

TRAF3IP2 = assay: Post-mortem Western blotting and immunohistochemical analysis of residual TNBC tumor of AO treated animals; assay type: in vivo
Excerpt: Post-mortem analysis of residual tumor confirmed that targeting TRAF3IP2 suppresses inflammation, angiogenesis, cell cycle and apoptosis, and genes involved in exosome release (FIG. 7(A)).

4IC tumors = assay: Treatment of late stage metastatic TNBC, bioluminescence imaging; assay type: in vivo, mice; settings: 100 μg in 50 μl interperitoneally every 48 hours from day 42
Method: To see if targeting and silencing TRAF3IP2 eliminates metastatic tumors in advanced metastatic TNBC, PDX model were used. 4IC tumors were induced intramammary into mice using 4IC cells [carrying a luciferase-expressing gene for ‘bioluminescence imaging’. Treatment was initiated in late stage BC indicated by advanced metastasis detectable by luciferase imaging (day 42). Animals were treated with TRAF3IP2-AO (100 μg in 50 μl) administered interperitoneally every 48 hours. Control group received SCR-AO in the same fashion (Data not shown). Representative images showing the extend of metastasis after treatment 1(T1), T5, T10, and T15. The control animals were treated with SCR-AO only on T1 and were euthanized due to the increasing tumor growth.

TNBC [2] = assay: TNBC treated in vivo with antisense oligonucleotide, immunohistochemical analysis of angiogenesis
Excerpt: Also, it is notable that TRAF3IP2 induces the expression and release of pro-angiogenic mediators into the TME, activating endothelial cells to promote neo-vascularization. TRAF3IP2 silencing.

BN2 glioblastoma [3] = assay: Glioblastoma PDX (BN2) intracranial model, ICV administration of AO, 2PE imaging and histology; assay type: in vivo, NSG mice
Excerpt: For the experiments reported here, the BN2 glioblastoma specimen was used in xenograft studies, and the results are shown in FIG. 14. Glioblastoma was induced by intracranial injection of tumor cells (into the left SSCx of NSG mice; 3×10^5 cells in PBS+Martigel; n=5 mice/group) isolated from primary glioblastoma tissue. At the time of the injection, a chronic cranial window was installed on the left side of the animal's skull that allowed in vivo 2PE imaging of tumor evolution.
For intracerebroventricular (ICV) administration of AO targeting TRAF3IP2 (TRAF3IP2-AO) or control scrambled AO (SCR-AO), a brain cannula was stereotaonctically implanted into the contralateral (right) ventricle (FIG. 14-A). Treatment of mice started on day 10 post-tumor induction with 5 μl every 48 h; 30 nanomolar AO (FIG. 14-B).
Using in vivo 2PE microscopy, angiograms of microvessels in glioblastoma tumors were captured through a cranial window after i.v. injection of fluorescein isothiocyanatedextran for visualization of blood vessels (green signal). Images correspond to day 24 post-tumor induction, after 8 ICV treatments with either SCR-AO (B, I&II; control group), or TRAF3IP2-AO (B IV&V).
Protein expression in residual tumors confirmed that targeting TRAF3IP2 suppresses inflammation, neoangiogenesis, cell cycle and apoptosis (FIG. 14-D).

BN2 glioblastoma [4] = assay: Detection of intracranial dissemination by PCR of human-specific α-satellite DNA in brain biopsies; assay type: in vivo, NSG mice; settings: compared to SCR-AO treated group
Excerpt: To detect intracranial micrometastasis, the animals in experiments detailed in FIG. 14 were biopsied from adjacent sections of brain. The biopsy specimen were subjected to PCR assay using primers that specifically detect human-specific a-satellite DNA sequence of the centromere region of chromosome 17. Areas evaluated include the left parietal lobe, at a distance of 2 mm from the focus of initial tumor inoculation (Area I) and the right SSCx equidistant from the interhemispheric fissure relative to the focus of initial tumor inoculation (Area II) (FIG. 15).

In the case of CS(=O)(=O)Nc1cc2occ(NC=O)c(=O)c2cc1Oc1ccccc1 [IGU, N-[7-(methanesulfonamido)-4-oxo-6-phenoxychromen-3-yl]formamide], the cell viability (U87; 48 hours, C2 (224.823 mM IGU), U87TRAF3IP2KD) is reported as “about 40%”, the cell viability (U87; 48 hours, C2 (224.823 mM IGU), control group U87) is reported as “about 50%” and the cell viability (U87; 72 hours, C2, U87TRAF3IP2KD) is reported as “about 20%”. The cell viability (U87; 72 hours, C2, control group U87) was “about 40%”, the cell viability (KNS; 24 hours, C2, KNS control) was “about 65%” and the cell viability (KNS; 24 hours, C2, KNSTRAF3IP2KD) was “about 55%”. For the same molecule, the cell viability (KNS; 48 hours, C1, KNS control) was “about 55%”, the cell viability (KNS; 48 hours, C1, KNSTRAF3IP2KD) was “about 45%” and the cell viability (KNS; 72 hours, C2, KNS control) was “about 40%”. The cell viability (KNS; 72 hours, C2, cells not named (KNSTRAF3IP2KD implied)) was “about 25%”.
In the case of CC(=O)O[C@H]1C(=O)[C@@]2(C)[C@H]([C@H](OC(=O)c3ccccc3)[C@]3(O)C[C@H](OC(=O)[C@H](O)[C@@H](NC(=O)c4ccccc4)c4ccccc4)C(C)=C1C3(C)C)[C@]1(OC(C)=O)CO[C@@H]1C[C@@H]2O [Paclitaxel, reference compound], the “increase of proportion of cells in G2” value (4IC) is reported as 23% and the “reduction of tumor volume / tumor size” value (wild type 4IC cells) is reported as 42%.
FCCP was tested, and the “mitochondrial membrane potential on addition of FCCP” value (TNBC cells) was “does not decrease mitochondrial membrane potential”.
“TRAF3IP2-AO: anti-sense oligonucleotide targeting TRAF3IP2, SEQ ID NO: 2 mG*mG*mU*mG*mG*G*C*A*C*A*T*G*C*T*C*mC*mU*mU*mC*mU” was tested, and the “micrometastasis: human-specific DNA sequence in most common metastatic sites” value (TNBC [1]) was “No human specific DNA sequence was detected”, the “immunohistochemical levels of TRAF3IP2, IL8 and Caspase 3 in tumor” value (TRAF3IP2; treated group vs. SCR-AO) was “decreased levels of TRAF3IP2 and IL8 and increased Caspase 3” and the “levels of TRAF3IP2, IL8, IL1b, and VEGF in tumors (protein expression analysis)” value (TRAF3IP2; vs. SCR-AO) was “significantly lower levels”. The “reduction of tumor volume / tumor size” value (wild type 4IC cells) was 78%, the “luciferase signal (metastasis)” value (4IC tumors) was “marked reduction of luciferase signal, reaching undetectable levels after 15 treatments” and the tumor growth (TNBC [2]; TNBC in vivo) was “reduced tumor growth”. For the same molecule, the “blood vessel density/angiogenesis (CD31 staining)” value (TNBC [2]; compared to SCR-AO treated tumors) was “lower blood vessel density/angiogenesis”, the “TNBC cells (human cells) in residual tumor tissue, staining for human-specific mitochondria” value (TNBC [2]; in vivo) was “significantly less number” and the “tumor growth / tumor size” value (BN2 glioblastoma [3]; ICV, 5 μl every 48 h, 30 nanomolar AO from day 10, vs. SCR-AO) was “reduced tumor growth; also recorded: marked reduction in tumor size; also recorded: significantly less growth and smaller volumes”. For the same molecule, the “blood vessel density / vascularization” value (BN2 glioblastoma [3]; compared to SCR-AO treated) was “lower blood vessel density/angiogenesis; also recorded: less vascularization”, the “glioblastoma cells (human cells) in residual tumor tissue, staining for human-specific mitochondria” value (BN2 glioblastoma [3]; mouse, in vivo) was “significantly less number” and the “infiltrating cells in subcortical areas (histology of brain sections)” value (BN2 glioblastoma [3]; mouse, in vivo) was “significantly smaller number of infiltrating cells”. The “intracranial metastasis at Area I (left parietal lobe) and Area II (right SSCx)” value (BN2 glioblastoma [4]) was “markedly reduced metastasis at both sites”.
